Data as given in patent publication US9889150B2, “Agents for the prevention and/or treatment of central nervous system damage” (The University Of Liverpool, priority 2012, dated 2018).
Several values for one entry are separate records, joined by “and”; a condition that tells them apart may be missing. Equal values may be shown once. Entries after “also recorded” stand apart in the source; their conditions may differ. Read-outs that look alike come from different tables or passages of the source.

Experiments:
Factor Xa (Homo sapiens) [1] = tested on: T1, Factor Xa (Homo sapiens); test: Anti-factor Xa activity against PIMH standard, Coatest Heparin test kit; assay type: biochemical; settings: compared with standard heparin (HEP1)
T1 construct: purchased Chromogenix
T1 sequence (P01008 33-464): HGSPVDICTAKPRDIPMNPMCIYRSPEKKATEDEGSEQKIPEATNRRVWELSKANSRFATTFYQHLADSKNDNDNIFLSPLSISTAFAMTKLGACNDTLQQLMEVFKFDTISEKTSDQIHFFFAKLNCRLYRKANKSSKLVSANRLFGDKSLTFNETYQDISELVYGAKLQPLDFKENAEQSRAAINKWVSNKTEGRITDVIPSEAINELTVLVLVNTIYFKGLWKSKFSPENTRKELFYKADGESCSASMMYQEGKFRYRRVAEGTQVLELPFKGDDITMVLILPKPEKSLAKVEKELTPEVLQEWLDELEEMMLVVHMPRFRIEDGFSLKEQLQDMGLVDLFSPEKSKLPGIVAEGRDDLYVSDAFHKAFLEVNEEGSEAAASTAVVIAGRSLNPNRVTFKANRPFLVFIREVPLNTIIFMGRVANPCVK
Method: Anti Factor Xa activity can be measured against a PIMH standard of known activity (Sigma, UK) using a diagnostic grade Coatest Heparin test kit (Chromogenix, MA), adapted to a 96-well plate format, reading A405 (Polarstar plate reader (BMG LabTechnologies, U.K.))^17.
The anti-factor Xa activity was measured against a PIMH standard of known activity using a diagnostic grade Coatest Heparin test kit (Chromogenix, MA), adapted to a 96-well plate format, reading A405.

Factor Xa (Homo sapiens) [2] = target: T1, Factor Xa (Homo sapiens); test: Factor Xa colorimetric substrate assay with antithrombin III; assay type: biochemical; settings: tested up to 100 ug/ml
Method: (§1) Factor Xa and Factor II activity was measured using a colorimetric substrate assay as previously described^17. Briefly, in a 96 well ELISA plate, antithrombin III (American Diagnostica, 30 mIU/ml final concentration) was incubated with heparin or polysaccharide fractions in 0.9% NaCl at 37° C. for 2 minutes. Factor IIa (Sigma, 15 mU/ml final concentration) or Factor Xa (Thermo Scientific, 15 mU/ml final concentration) was added and the samples incubated for a further 1 minute at 37° C. Factor Xa Chromogenic substrate (Sigma, 240 uM final concentration) was added to the samples and incubated for 10 minutes at 37° C. The reaction was stopped with glacial acetic acid (Sigma, 25% final concentration). Colour change of the substrate was measured at 405 nm.
(§2) For all assays, heparins and polysaccharides were tested up to 100 ug/ml.

Factor IIa = target: T2, Factor IIa (Homo sapiens, UniProt P00734+P01008); test: Factor IIa colorimetric substrate assay with antithrombin III; assay type: biochemical; settings: tested up to 100 ug/ml
T2 construct: Factor IIa (Sigma, 15 mU/ml final concentration); purchased Sigma (Factor IIa); American Diagnostica (antithrombin III)
Method: as §1, §2

normal human plasma [3] = test: APTT assay; assay type: biochemical; settings: tested up to 100 ug/ml
Method: (§3) APTT and PT assays were performed using a Axis Shield Thrombotrack 1 instrument using normal human plasma, Pathrombin SL reagent and Thromborel S (all from Axis Shield) reagents according to manufacturers instructions.
as §2

normal human plasma [4] = test: PT assay; assay type: biochemical; settings: tested up to 100 ug/ml
Method: as §3, §2

OECs and astrocytes [5] = test: OEC:astrocyte confrontation assay (boundary formation); assay type: cell-based, Sprague-Dawley rat; parameters: key to graded score of boundary formation: mingling (−); partial boundary (+/−); complete boundary (++); settings: 2 days of treatment; for boundary formation between OECs and astrocytes: modified heparins 10 μg/ml
Method: (§4) All primary neural cultures were generated from Sprague-Dawley rat pups of either sex. As described previously^10,37, purified type 1 astrocytes were prepared by digesting cortices (dissected from 1-day old Sprague Dawley (SD) rats) in 1.33% (w/v) collagenase (Sigma-Aldrich, Gillingham, UK), seeding (˜2×10^7 cells per 75 cm^2 flask) and culturing the cells in poly-L-lysine (PLL, 13.3 μg/ml, Sigma-Aldrich, Gillingham, UK) coated 75 cm2 flasks for 10-12 days. The cells were maintained in DMEM (Invitrogen, Paisley, Scotland) supplemented with 10% (v/v) foetal bovine serum (FBS) (Sigma-Aldrich, Gillingham, UK) and L-glutamine (2 mM, Sigma-Aldrich, Gillingham, UK) (DMEM-FBS). Confluent flasks were shaken on a rotary platform overnight at 37° C. to remove contaminating oligodendrocyte precursor cells. The remaining cells were 85-95% type 1 astrocytes as identified by labelling for glial fibrillary acidic protein (GFAP), an astrocyte cell specific marker.
OECs were isolated from the olfactory bulb of 7 day old SD rat pups and purified using magnetic nanoparticles (STEMCELL Technologies, UK) pre-bound with the p75^NTR antibody (mouse IgG1, Abcam, Cambridge, UK)^30. The cells were grown in low glucose DMEM with 5% (v/v) FBS and 2 mM L-glutamine and further supplemented with DMEM-BS (Bottenstein, 1979), FGF2 (25 ng/ml, Peprotech, London UK), heregulin β-1 (50 ng/ml, R&D Systems, Oxon, UK), forskolin (5×10^-7 M Sigma-Aldrich, Gillingham, UK) and astrocyte conditioned media (ACM) (1:5, fresh serum-free media taken after incubation with a confluent astrocyte monolayer for 48 h)^18, 37.
Confrontation assays were performed as described by Wilby et al. (1999) and Lakatos et al. (2000) with some modifications^10,48. Briefly, 70 μl containing 10,000 OECs or SCs were seeded into one well of a silicon Ibidi culture insert on a PLL-coated glass coverslip (Ibidi GmbH, Munich, Germany). Into the opposing, parallel well, 10,000 astrocytes were seeded. Cells were allowed to attach for 1 h before careful removal of the insert followed by a wash with DMEM-FBS to remove unattached cells. Cultures were maintained in DMEM-FBS and allowed to grow towards each other over a period of 5-7 days, allowing time for cells to make contact and interact^10. In some experiments, modified heparins or blocking antibodies were added to the cultures after the cells had contacted each other. Cultures were then immunolabelled using anti-GFAP for astrocytes (1:500; anti-rabbit (Dako, Ely, UK)) and anti-p75NTR for OECs and SCs (1:1; IgG1; hybridoma supernatant^49. Fluorescent images were captured using an Olympus BX51 fluorescent microscope and Image-Pro software. Using Adobe Photoshop Elements 7.0, a 300 μm line was drawn along the interface between astrocytes and either OECs or SCs. The numbers of OECs or SCs crossing the cell:cell boundary were counted and averaged over five randomly chosen fields. Experiments were repeated at least three times.
Modified heparins were produced semisynthetically by chemical modification (selective desulfation) of heparin as described in Example 1. These structurally distinct, model “HS-mimetic” polysaccharides^50 are useful tools for investigating structure-activity relationships of HS^15-17,31. Heparins were added to confrontation assays at 10 μg/ml at the stage when cells made contact (day 0) and treatment was repeated on day 2. Cultures were fixed and stained as described above on day 3. […]
Purified OECs were seeded at a density of 5000 cells/100 μl into one chamber of an Ibidi culture insert (Ibidi GmbH, Munich, Germany) sealed onto a PLL coated coverslip in a well of a 24-well plate. Cells were cultured in defined OEC medium for 24 h, after which, the medium was replaced with low serum (2% (v/v) FBS) OEC medium containing 1 μM siRNA. siRNA sequences were obtained from Dharmacon/Thermo Scientific (Sulf 1: E-093746-00-0005; Sulf2: E-093673-00-0005; non-targeting: D-001910-01-05; Thermo Fisher Scientific Inc, IL, USA). […]

[6] = Celsus Labs lot PH-42800; cited from earlier work
SCs and astrocytes = test: SC:astrocyte confrontation assay (boundary formation); assay type: cell-based, Sprague-Dawley rat; settings: modified heparins 10 μg/ml, 2 days of treatment
Method: as §4
SCs were purified using a modification of the method described by Brockes and colleagues^20. This modification involved treating the cultures with cytosine arabinoside (AraC, 10^−5 M, Sigma-Aldrich, Gillingham, UK), followed by incubation with anti-Thy1.1 antibody (1:1 supernatant, Sigma-Aldrich, Gillingham, UK) and rabbit complement (1:6, Harlan Laboratories Ltd., UK) to reduce contamination by fibroblasts^10. […]
Confrontation assays were performed as described by Wilby et al. (1999) and Lakatos et al. (2000) with some modifications^10,48. […] Cultures were then immunolabelled using anti-GFAP for astrocytes (1:500; anti-rabbit (Dako, Ely, UK)) and anti-p75NTR for OECs and SCs (1:1; IgG1; hybridoma supernatant^49. Fluorescent images were captured using an Olympus BX51 fluorescent microscope and Image-Pro software. Using Adobe Photoshop Elements 7.0, a 300 μm line was drawn along the interface between astrocytes and either OECs or SCs. The numbers of OECs or SCs crossing the cell:cell boundary were counted and averaged over five randomly chosen fields. Experiments were repeated at least three times. […]

OECs and astrocytes [7] = settings: previous work; cited from earlier work

Substance | Anticoagulant activity (anti-Xa activity) (Factor Xa (Homo sapiens) [1]) | IC50 Factor Xa (Factor Xa (Homo sapiens) [2]) | IC50 Factor IIa (Factor IIa) | IC50 APTT (normal human plasma [3]) | IC50 PT (normal human plasma [4]) | also measured
Ido 2-de-O-sulphated, N-acetylated heparin [HEP5] | 0.03% | NI (No inhibition of coagulation up to 100 ug/ml of compound) | NI (No inhibition of coagulation up to 100 ug/ml of compound) | NI (No inhibition of coagulation up to 100 ug/ml of compound) | NI (No inhibition of coagulation up to 100 ug/ml of compound) | boundary formation between OECs and astrocytes (OECs and astrocytes [5]): did not
PIMH [HEP1, reference compound] | 100% |  |  |  |  | boundary formation between OECs and astrocytes (OECs and astrocytes [5]): induced boundaries between OECs and astrocytes; also recorded: induced the strongest boundaries; anticoagulant activity [6]: 201 IU/mg
6-O-desulphated, N-acetylated heparin [HEP6] | 0.03% | NI (No inhibition of coagulation up to 100 ug/ml of compound) | NI (No inhibition of coagulation up to 100 ug/ml of compound) | NI (No inhibition of coagulation up to 100 ug/ml of compound) | NI (No inhibition of coagulation up to 100 ug/ml of compound) | boundary formation between OECs and astrocytes (OECs and astrocytes [5]; listed as Hep 6): do not promote boundary formation; boundary formation between OECs and astrocytes (OECs and astrocytes [5]; listed as Hep6): did not; SCs mingling with astrocytes / boundary formation (SCs and astrocytes; listed as Hep 6): increased number of SCs mingling with astrocytes; also recorded: significantly increased cell mingling
6-O-desulphated heparin [HEP4] | 0.5% |  |  |  |  | boundary formation between OECs and astrocytes (OECs and astrocytes [5]; listed as Hep 4): lower boundary forming activity; boundary formation between OECs and astrocytes (OECs and astrocytes [5]; listed as Hep4): induced boundaries between OECs and astrocytes
Ido 2-de-O-sulphated heparin [HEP3] | 0.4% |  |  |  |  | boundary formation between OECs and astrocytes (OECs and astrocytes [5]; listed as Hep 3): lower boundary forming activity; boundary formation between OECs and astrocytes (OECs and astrocytes [5]; listed as Hep3): induced boundaries between OECs and astrocytes
N-acetyl heparin [HEP2] | 0.03% |  |  |  |  | boundary formation between OECs and astrocytes (OECs and astrocytes [5]; listed as Hep 2): induced significant boundary formation; boundary formation between OECs and astrocytes (OECs and astrocytes [5]; listed as Hep2): induced boundaries between OECs and astrocytes
Heparin [reference compound] |  | 0.9 µg/mL and 0.9295 µg/mL | 1.0 µg/mL and 1.0326 µg/mL | 1.2 µg/mL and 1.2461 µg/mL | 41.4 µg/mL and 41.4005 µg/mL | graded score of boundary formation (OECs and astrocytes [5]; 10 μg/ml): ++; boundary formation between OECs and astrocytes (OECs and astrocytes [7]): induce a boundary between OECs and astrocytes

Continued, in another order:

Anticoagulant activity (anti-Xa activity) (Factor Xa (Homo sapiens) [1]) | Substance | IC50 Factor Xa (Factor Xa (Homo sapiens) [2]) | IC50 Factor IIa (Factor IIa) | IC50 APTT (normal human plasma [3]) | IC50 PT (normal human plasma [4]) | also measured
35.0% | Per-sulphated heparin [HEP9] |  |  |  |  | boundary formation between OECs and astrocytes (OECs and astrocytes [5]; listed as Hep 9): induced the strongest boundaries; boundary formation between OECs and astrocytes (OECs and astrocytes [5]; listed as Hep9): induced boundaries between OECs and astrocytes
0.03% | 6-O-desulphated, 2-O-desulphated heparin [HEP7] | NI (No inhibition of coagulation up to 100 ug/ml of compound) | NI (No inhibition of coagulation up to 100 ug/ml of compound) | NI (No inhibition of coagulation up to 100 ug/ml of compound) | NI (No inhibition of coagulation up to 100 ug/ml of compound) | boundary formation between OECs and astrocytes (OECs and astrocytes [5]; listed as Hep 7): do not promote boundary formation; boundary formation between OECs and astrocytes (OECs and astrocytes [5]; listed as Hep7): did not; SCs mingling with astrocytes / boundary formation (SCs and astrocytes; listed as Hep 7): increased number of SCs mingling with astrocytes; also recorded: significantly increased cell mingling
0.03% | 6-O-desulphated, 2-O-desulphated, N-acetylated heparin [HEP8] | NI (No inhibition of coagulation up to 100 ug/ml of compound) | NI (No inhibition of coagulation up to 100 ug/ml of compound) | NI (No inhibition of coagulation up to 100 ug/ml of compound) | NI (No inhibition of coagulation up to 100 ug/ml of compound) | boundary formation between OECs and astrocytes (OECs and astrocytes [5]; listed as Hep 8): do not promote boundary formation; boundary formation between OECs and astrocytes (OECs and astrocytes [5]; listed as Hep8): did not; SCs mingling with astrocytes / boundary formation (SCs and astrocytes; listed as Hep 8): increased number of SCs mingling with astrocytes; also recorded: significantly increased cell mingling
